Values quoted from earlier work as cited in patent publication US9393230B2, “Pharmaceutical composition on the basis of phyto-nutrients with increased bioavailability, having anti-tumor activity, and method for producing said composition (alternatives)” (Nordic Labs Limited, priority 2012, dated 2016).

## O=C(O[C@@H]1Cc2c(O)cc(O)cc2O[C@@H]1c1cc(O)c(O)c(O)c1)c1cc(O)c(O)c(O)c1 [epigallo-3-catechin, epigallocatechol-3-gallate]
  solubility in water: water-soluble
